Measurements from patent publication US20130029362A1, “MARKERS AND ASSAYS FOR DETECTION OF NEUROTOXICITY” (priority 2010, published 2013).

Experiments:
[1] = test system: Mouse, rat cortical or hippocampal primary neurons; test: In vitro drug candidate screening for neurotoxicity, ELISA of cell lysates; type: cell-based; conditions: primary neurons 21 DIV, glutamate 30 min, other agents 24 hours
Description: Mouse, rat cortical or hippocampal primary neurons are cultured for 21 DIV, and the dose dependent responses of drugs are investigated. Cultured cells are exposed to various concentrations of: Glutamate (0.01 to 1000 μM) in 10 μM glycine both in HBSS; B) 0.01 to 100 μM Kainate in culture media; C) H2O2 (0.001 to 1000 μM) in culture media; C) Zinc (0.01 to 1000 μM) in culture media; D) U0126 (0.001 to 100 μM) in culture media; and E) and equal volume of culture media as a control. Glutamate treatment is performed for 30 minutes after which the cells are washed and the HBSS is replaced with culture media and analyzed. The remaining candidates are treated for 24 hours and analyzed. The levels of intracellular UCH-L1 and SBDP 145 are analyzed following cell lysis and screening of the lysates by ELISA using anti-UCH-L1 and SBDP 145 specific antibodies. The levels of UCH-L1 are increased following exposure particularly to Glutamate and H2O2.

Male Sprague-Dawley rats [2] = type: in vivo, rat; conditions: 9 mg/kg s.c., compared with control group
Description: (§1) Male Sprague-Dawley rats (Harlan: Indianapolis, Ind.) with weight from 180 to 200 g are used. The rats are allowed free access to a normal laboratory diet and chlorinated potable water. All rats are acclimated for at least one week to the housing facilities and diet before being used in the study. The controls in the animal room are set to maintain a temperature of 20° C. to 24° C. and 30% to 70% relative humidity. Rats are maintained on a twelve-hour light/dark cycle.
(§2) Animals received single subcutaneous injections of Kaininc acid (Sigma, Chemical, St. Louis, Mo., USA) at dose 9 mg/kg and sacrificed at 24 h after injection. Separate control/treatment groups of animals are used. Brain tissues and CSF sample are collected at 6, 24, 48 and 72 h time points after injection.
(§3) At the appropriate time points, animals are anesthetized with 4% isoflurane in oxygen as a carrier gas for 4 minutes, followed by maintenance anesthesia of 2-3% isoflurane in the same carrier gas. The rats are placed in a stereotaxic instrument and about 100 μl of CSF from the cisterna magna of each animal is collected transcutaneously through 25 gauge needle attached to polyethylene tubing. CSF samples are frozen on dry ice immediately after collection. After CSF collection animals are removed from the stereotaxic instrument and anesthesia nose cone and the animal, still under anesthesia, is immediately sacrificed by decapitation. Cortex, hippocampus, cerebellum and striatum will be rapidly dissected out, rinsed in cold PBS and snap frozen in liquid nitrogen. To obtain brain tissue for IHC animals are euthanized with lethal dose of pentobarbital, transcardically perfused with 4% paraformaldehyde and whole brains are removed, processed and embedded in paraffin.
Serum and CSF sample concentrations of UCH-L1 are measured using a UCH-L1 sandwich enzyme-linked immunosorbent assay (ELISA) version lb modified from a protocol previously reported (Papa L. et al., 2010; Liu M. et al., 2009). Both mouse monoclonal antibody (capture antibody) and rabbit polyclonal antibody (detection antibody) are made in-house against recombinant human UCH-L1 full length protein and partial protein respectively). Both are affinity purified using target-protein-based affinity column. Their specificity to only target protein (UCH-L1) is confirmed by immunoblotting. Reaction wells are coated with capture antibody (5 μg/mL purified mouse monoclonal anti-human UCHL1) in 0.05 M sodium bicarbonate, pH 9.6 and incubated overnight at 4° C. […] Finally, the wells are developed with substrate solution: Ultra-TMB ELISA 100 μL/well (Pierce #34028) with incubation for 10 min, plate read at 450 nm with a 96-well spectrophotometer (Molecular Device Spectramax 190).
Serum and CSF sample concentrations of GFAP are measured using a GFAP sandwich enzyme-linked immunosorbent assay (ELISA) version 2a. […]

rats = test: Kainic acid neurotoxicity rat model, biomarkers in blood plasma; type: in vivo; conditions: process of Example 5 with blood plasma in lieu of CSF; as a function of time
Text: The process of Example 5 is repeated with blood plasma as the subject sample source the rats in lieu of CSF.

Male Sprague-Dawley rats [3] = test: Kainic acid neurotoxicity rat model, Western blot of brain tissue for αII-spectrin and SBDPs; type: in vivo; conditions: 9 mg/kg s.c.; hippocampus and to a lesser extent cortex
Description: as §1, §2, §3
After SDS-gel electrophoresis in Tris-glycine buffer system and electrotransfer, blotting membranes are blocked for 1 hour at ambient temperature in 5% non-fat milk in Tris-buffered saline (TBS) and then in TBS containing 0.05% […] (TBST), then incubated in primary monoclonal anti-αII-spectrin antibodies (Biomol, Plymouth Meeting, Pa., USA) diluted ˜1:3000 (3.5 ul/10 ml) in PBS as recommended by the manufacturer at 4° C. overnight. […] Molecular weight of intact αll-spectrin protein and αll-spectrin breakdown products (SBDPs) are assessed by running alongside rainbow colored molecular weight standards (Amersham, Cat # RPN800V). Semi-quantitative evaluation of levels of αll-spectrin and of its breakdown products SBDP150 and SBDP145 and SBDP120 is performed using computer-assisted high-resolution flatbed scanner Epson XL3500 and densitometric image analysis with Image J software (NIH). […]

Male Sprague-Dawley rats [4] = test: Kainic acid neurotoxicity rat model, immunohistochemistry of brain sections; type: in vivo
Description: as §1, §2, §3
IHC is performed on paraffin-embedded 6 μm brain sections. Slides are deparaffinized, incubated for 10 min at 95° C. in Trilogy solution (Cell Marque, Hot Springs, Ak.) for antigen retrieval, blocked for endogenous peroxides and incubated with 1 Abs (GFAP, SBDP145, SBDP150, SBDP120 and Casp 3) overnight at 4° C. followed by treatments with secondary Abs (LSAB+, # K0679, Dako). The staining is visualized with 3,3′-diaminobenzidine (DAB) (Dako, Carpinteria, Calif.) for brown color development. Sections are counterstained with Hematoxylin (Dako, Carpinteria, Calif.). Negative controls are performed by treatment only with species-matched secondary antibodies.

[5] = test system: Female Sprague-Dawley rats; test: Acute in vivo drug candidate screening for neurotoxicity, biofluid biomarkers by sandwich ELISA or Western blot; conditions: rat, i.p., 30, 60, 90, 120 minutes following dosing, methamphetamine 40 mg/kg
Description: Anesthesia is performed with intraperitoneal injections of pentobarbital (50 mg/kg). The test substance can also be administered in a single dose by gavage using a stomach tube or a suitable intubation cannula. Animals are fasted prior to dosing. A total of four to eight animals of are used for each dose level investigated.
30, 60, 90, and 120 minutes following dosing, the rats are sacrificed by decapitation and blood is obtained by cardiac puncture. The levels of biofluid UCH-L1 and SBDP 150 and GFAP are analyzed by sandwich ELISA or Western blot by using UCH-L1 and SBDP 150 and GFAP specific antibodies.

[6] = 9 mg/kg s.c., hippocampus and cortex, vs control group

## N[C@@H](CCC(=O)O)C(=O)O [Glutamate]
[1]
  levels of intracellular UCH-L1: increased

## OO [H2O2]
[1]
  levels of intracellular UCH-L1: increased

## C=C(C)[C@H]1CN[C@H](C(=O)O)[C@H]1CC(=O)O [KA, Kainic acid]
Male Sprague-Dawley rats [2]
  SBDP120 in CSF (ELISA): buildup
  SBDP145 in CSF (ELISA): buildup
  SBDP150 in CSF (ELISA): buildup
  expression of GFAP in CSF (ELISA): increase
  expression of UCHL 1 in CSF (ELISA): increase
rats
  Biomarker levels in blood plasma (UCHL 1, GFAP, NF-H): elevated
Male Sprague-Dawley rats [3]
  SBDP120 breakdown fragment produced by caspase-3 (Western blot): appearance
  SBDP145 breakdown fragment produced by calpain (Western blot): appearance
  SBDP150 breakdown fragment produced by calpain (Western blot): appearance
  intact αII-spectrin level (Western blot): decrease
Male Sprague-Dawley rats [4]; [6]
  level of GFAP (IHC): increased level
  level of SBDP120 (IHC): increased level
  level of SBDP145 (IHC): increased level
  level of SBDP150 (IHC): increased level
Male Sprague-Dawley rats [4]; hippocampus of KA treated rats, FIG. 5
  level of αII-spectrin breakdown products (histology images): increased level
Male Sprague-Dawley rats [4]; hippocampus of KA treated rats, FIG. 7
  level of activated Caspase-3 (histology images): increased level

## CN[C@@H](C)Cc1ccccc1 [methamphetamine]
[5]
  biofluid GFAP level relative to control animals: increased
[5]; cisplatin 10 mg/kg
  biofluid SBDP 150 level relative to control animals: increased
  biofluid UCH-L1 level relative to control animals: increased
